Data: patent US5034543A, “Ascorbic acid derivative and use as antioxidants” (Nippon Hypox Laboratories Incorporated, priority 1989, dated 1991)

Key:
[1] = Effects on formazan formation in the xanthine-xanthine oxidase-Nitrotetrazolium Blue system; type: biochemical; details: for Inhibition ratio of formazan formation: pH 7.8, 30° C., 10 minutes; for inhibition of formazan formation (result in words): xanthine-xanthine oxidase-NTB system
Method: (Effects on formazan formation in the xanthine-xanthine oxidase-Nitrotetrazolium Blue system)
Specimens were added to a 0.05M phosphate buffer solution (pH 7.8) containing xanthine, EDTA 2Na and Nitrotetrazolium Blue (NTB) so as to provide the respective final concentrations of 5×10^-5 M, 1×10^-4 M and 5×10^-4 M and warmed at 30° C. for 3 minutes. Xanthine oxidase (manufactured by Sigma Corp.) was added, and the resulting specimens were warmed at 30° C. for 10 minutes to colorimetrically determine formazan formed by superoxide anion radicals. The inhibition ratio of formazan formation was determined from the results at concentrations of 0.5 mM and 4 mM of each specimen.

[2] = Antioxidant action examined by using stable radicals: reduction activity of DPPH (Blois method, absorbance at 517 nm); details: 0.1 mM DPPH in ethanol, after 20 minutes, read-out: 50% radical eliminating concentration
Method: (Antioxidant action examined by using stable radicals)
Reduction activity of α,α-diphenyl-β-picrylhydrazyl (DPPH) which was a stable free radical was examined according to the M. S. Blois method (Nature, vol. 181, page. 1199, 1958) and used as an index to antioxidant action. Thus, specimens were added to 3 ml of a 0.1 mM DPPH solution in ethanol, and absorbance at a wavelength of 517 nm was measured using a spectrophotometer after 20 minutes. The difference in absorbance from the solvent control [0.5% or less of dimethylformamide (DMF)] was taken as the reduction activity.

For `CCC(=O)COC1=C(O)C(=O)O[C@@H]1[C@@H]1COC(C)(C)O1` [Compound 022, L-5,6-O-isopropylidene-3-O-(3-butanone) ascorbic acid], the “Inhibition ratio of formazan formation” value ([1]; 0.5 mM) was 22.6%, the “Inhibition ratio of formazan formation” value ([1]; 4 mM) was 26.7% and the “inhibition of formazan formation (result in words)” value [1] was “remarkably inhibited formazan formation”. The IC50 [2] was 20 µM.
Compound `CCOC(=O)C(C)OC1=C(O)C(=O)O[C@@H]1[C@@H]1COC(C)(C)O1` (stereo partly shown) [Compound 014] has an IC50 [2] of 26 µM.
For `CCCCCCCCCCCCOC1=C(O)C(=O)O[C@@H]1[C@@H]1COC(C)(C)O1` [Compound 002], the IC50 [2] was 29 µM.
In the case of `CCOC(=O)COC1=C(O)C(=O)O[C@@H]1[C@@H]1COC(C)(C)O1` [Compound 020], the IC50 [2] is reported as 23 µM.
For `CCOC(=O)CCCOC1=C(O)C(=O)O[C@@H]1[C@@H]1COC(C)(C)O1` [Compound 010], the IC50 [2] was 16 µM.
In the case of `CCCCOC1=C(O)C(=O)O[C@@H]1[C@@H]1COC(C)(C)O1` [Compound 004], the IC50 [2] is reported as 25 µM.
In the case of `C=CCOC1=C(O)C(=O)O[C@@H]1[C@@H]1COC(C)(C)O1` [Compound 011], the IC50 [2] is reported as 33 µM.
With `CCOC(=O)CCCCOC1=C(O)C(=O)O[C@@H]1[C@@H]1COC(C)(C)O1` [Compound 008] the IC50 [2] was 16 µM.
Work on `CCCCCCCCCCOC(=O)COC1=C(O)C(=O)O[C@@H]1[C@@H]1COC(C)(C)O1` [Compound 018] yielded an IC50 [2] of 28 µM.
`CC1(C)OC[C@@H]([C@H]2OC(=O)C(O)=C2OCC#N)O1` [Compound 024] showed an IC50 [2] of 31 µM.
`CC1(C)OC[C@@H]([C@H]2OC(=O)C(O)=C2OCC(=O)c2ccccc2)O1` [Compound 023] gave an IC50 [2] of 24 µM.
In the case of `CC(C)(C)OC(=O)COC1=C(O)C(=O)O[C@@H]1[C@@H]1COC(C)(C)O1` [Compound 017], the IC50 [2] is reported as 25 µM.
Work on `CCCCOC(=O)COC1=C(O)C(=O)O[C@@H]1[C@@H]1COC(C)(C)O1` [Compound 019] yielded an IC50 [2] of 25 µM.
In the case of `CC(=O)COC1=C(O)C(=O)O[C@@H]1[C@@H]1COC(C)(C)O1` [Compound 021, L-5,6-O-isopropylidene-3-O-methylcarbomethylascorbic acid], the “Inhibition ratio of formazan formation” value ([1]; 0.5 mM) is reported as 9.2%, the “Inhibition ratio of formazan formation” value ([1]; 4 mM) is reported as 47.4% and the “inhibition of formazan formation (result in words)” value [1] is reported as “remarkably inhibited formazan formation”. It also gave an IC50 [2] of 17 µM.
Compound `CC1(C)OC[C@@H]([C@H]2OC(=O)C(O)=C2OCc2cccnc2)O1` [Compound 007] has an IC50 [2] of 23 µM.
Compound `CC1(C)OC[C@@H]([C@H]2OC(=O)C(O)=C2OCC(=O)OCc2ccccc2)O1` [Compound 016] has an IC50 [2] of 25 µM.
Work on `CCC(C)OC1=C(O)C(=O)O[C@@H]1[C@@H]1COC(C)(C)O1` (stereo partly shown) [Compound 005] yielded an IC50 [2] of 32 µM.
In the case of `CC1(C)OC[C@@H]([C@H]2OC(=O)C(O)=C2OCc2ccccc2)O1` [Compound 006], the IC50 [2] is reported as 22 µM.
`CC1(C)OC[C@@H]([C@H]2OC(=O)C(O)=C2OCCO)O1` [Compound 012] gave an IC50 [2] of 35 µM.
Compound `CC1(C)OC[C@@H]([C@H]2OC(=O)C(O)=C2OCC(=O)O)O1` [Compound 015] has an IC50 [2] of 31 µM.
Work on `CCOC1=C(O)C(=O)O[C@@H]1[C@@H]1COC(C)(C)O1` [Compound 025] yielded an IC50 [2] of 22 µM.
`CCCCCCCCCCCCCCCCCCOC1=C(O)C(=O)O[C@@H]1[C@@H]1COC(C)(C)O1` [Compound 001] showed an IC50 [2] of 30 µM.
Compound `COCOC1=C(O)C(=O)O[C@@H]1[C@@H]1COC(C)(C)O1` [Compound 013] has an IC50 [2] of 17 µM.
`CC1(C)OC[C@@H]([C@H]2OC(=O)C(O)=C2OCCCCCCCCCCCCCCCCC(=O)O)O1` [Compound 009] showed an IC50 [2] of 25 µM.
Compound `CCCCCCCCOC1=C(O)C(=O)O[C@@H]1[C@@H]1COC(C)(C)O1` [Compound 003] has an IC50 [2] of 27 µM.
